Reference: patent US20200315176A1, “FUNGICIDAL COMPOSITIONS” (SYNGENTA PARTICIPATIONS AG, priority 2017, published 2020)

Legend:
[1] = system: Puccinia recondita f. sp. tritici; experiment: Example A1: fungicidal activity against Puccinia recondita f. sp. tritici / wheat / leaf disc preventative (brown rust); format: in vivo; details: foliar, 200 ppm in the applied formulation, wheat leaf segments, compared to untreated, read-out: disease control
Method: (§1) Leaf disks or leaf segments of various plant species are cut from plants grown in a greenhouse. The cut leaf disks or segments are placed in multiwell plates (24-well format) onto water agar. The leaf disks are sprayed with a test solution before (preventative) or after (curative) inoculation. Compounds to be tested are prepared as DMSO solutions (max. 10 mg/mL) which are diluted to the appropriate concentration with 0.025% Tween20 just before spraying. The inoculated leaf disks or segments are incubated under defined conditions (temperature, relative humidity, light, etc.) according to the respective test system. A single evaluation of disease level is carried out 3 to 14 days after inoculation, depending on the pathosystem. Percent disease control relative to the untreated check leaf disks or segments is then calculated.
Wheat leaf segments cv. Kanzler were placed on agar in multiwell plates (24-well format) and sprayed with the formulated test compound diluted in water. The leaf disks were inoculated with a spore suspension of the fungus 1 day after application. The inoculated leaf segments were incubated at 19° C. and 75% relative humidity (rh) under a light regime of 12 hours light/12 hours darkness in a climate cabinet and the activity of a compound was assessed as percent disease control compared to untreated when an appropriate level of disease damage appears in untreated check leaf segments (7 to 9 days after application).

[2] = system: Phakopsora pachrhizi; experiment: Example A3: fungicidal activity against Phakopsora pachrhizi / soybean / leaf disc preventative (Asian soybean rust); format: in vivo; details: Phakopsora pachyrhizi, foliar, 200 ppm in the applied formulation, soybean leaf disks, read-out: disease control
Method: as §1
Soybean leaf disks are placed on water agar in multiwell plates (24-well format) and sprayed with the formulated test compound diluted in water. One day after application leaf discs are inoculated by spraying a spore suspension on the lower leaf surface. After an incubation period in a climate cabinet of 24-36 hours in darkness at 20° C. and 75% rh leaf disc are kept at 20° C. with 12 h light/day and 75% rh. The activity of a compound is assessed as percent disease control compared to untreated when an appropriate level of disease damage appears in untreated check leaf disks (12 to 14 days after application).

[3] = system: Glomerella lagenarium (Colletotrichum lagenarium); experiment: Example A4: fungicidal activity against Glomerella lagenarium (Colletotrichum lagenarium) liquid culture / cucumber / preventative (anthracnose); format: cell-based; details: Colletotrichum orbiculare, 20 ppm in the applied formulation, growth measured photometrically 3 to 4 days after application, read-out: disease control
Method: Mycelia fragments or conidia suspensions of a fungus prepared either freshly from liquid cultures of the fungus or from cryogenic storage, are directly mixed into nutrient broth. DMSO solutions of the test compound (max. 10 mg/mL) are diluted with 0.025% Tween20 by a factor of 50 and 10 μL of this solution is pipetted into a microtiter plate (96-well format). The nutrient broth containing the fungal spores/mycelia fragments is then added to give an end concentration of the tested compound. The test plates are incubated in the dark at 24° C. and 96% relative humidity. The inhibition of fungal growth is determined photometrically after 2 to 7 days, depending on the pathosystem, and percent antifungal activity relative to the untreated check is calculated. Conidia of the fungus from cryogenic storage are directly mixed into nutrient broth (PDB—potato dextrose broth). After placing a (DMSO) solution of test compound into a microtiter plate (96-well format), the nutrient broth containing the fungal spores is added.

[4] = system: Puccinia recondita f. sp. tritici; experiment: Example A2: fungicidal activity against Puccinia recondita f. sp. tritici / wheat / leaf disc curative (brown rust); format: in vivo; details: foliar, 24 h, 200 ppm in the applied formulation, curative (applied 1 day after inoculation), wheat leaf segments, read-out: disease control
Method: as §1
Wheat leaf segments cv. Kanzler are placed on agar in multiwell plates (24-well format). The leaf segments are then inoculated with a spore suspension of the fungus. Plates were stored in darkness at 19° C. and 75% relative humidity. The formulated test compound diluted in water was applied 1 day after inoculation. The leaf segments were incubated at 19° C. and 75% relative humidity under a light regime of 12 hours light/12 hours darkness in a climate cabinet and the activity of a compound was assessed as percent disease control compared to untreated when an appropriate level of disease damage appears in untreated check leaf segments (6 to 8 days after application).

Row | melting point | Compound | pest or weed control at 200 ppm [1] | pest or weed control at 200 ppm [2] | inhibition of growth at 20 ppm [3] | pest or weed control at 200 ppm [4]
1 | 189 to 194 °C | O=C(NC1CC1)c1cnn(Cc2ccc(-c3noc(C(F)(F)F)n3)cc2)c1 [X.04, N-cyclopropyl-1-[[4-[5-(trifluoromethyl)-1,2,4-oxadiazol-3-yl]phenyl]methyl]pyrazole-4-carboxamide] | ≥ 80% | ≥ 80% | ≥ 80% | ≥ 80%
2 | 122 to 129 °C | COC(=O)c1cnn(Cc2ccc(-c3noc(C(F)(F)F)n3)cc2)c1 [X.12, methyl 1-[[4-[5-(trifluoromethyl)-1,2,4-oxadiazol-3-yl]phenyl]methyl]pyrazole-4-carboxylate] | ≥ 80% | ≥ 80% | ≥ 80% | ≥ 80%
3 |  | N#Cc1ncnn1Cc1ccc(-c2noc(C(F)(F)F)n2)cc1 [X.02, 2-[[4-[5-(trifluoromethyl)-1,2,4-oxadiazol-3-yl]phenyl]methyl]-1,2,4-triazole-3-carbonitrile] | ≥ 80% | ≥ 80% | ≥ 80% | ≥ 80%
4 | 128 to 138 °C | CONC(=O)c1cnn(Cc2ccc(-c3noc(C(F)(F)F)n3)cc2)c1 [X.17, N-methoxy-1-[[4-[5-(trifluoromethyl)-1,2,4-oxadiazol-3-yl]phenyl]methyl]pyrazole-4-carboxamide] | ≥ 80% | ≥ 80% | ≥ 80% | ≥ 80%
5 | 166 to 176 °C | CCNC(=O)c1cnn(Cc2ccc(-c3noc(C(F)(F)F)n3)cc2)c1 [X.18, N-ethyl-1-[[4-[5-(trifluoromethyl)-1,2,4-oxadiazol-3-yl]phenyl]methyl]pyrazole-4-carboxamide] | ≥ 80% | ≥ 80% | ≥ 80% | ≥ 80%
6 | 105 to 115 °C | CCCOC(=O)c1cnn(Cc2ccc(-c3noc(C(F)(F)F)n3)cc2)c1 [X.16, propyl 1-[[4-[5-(trifluoromethyl)-1,2,4-oxadiazol-3-yl]phenyl]methyl]pyrazole-4-carboxylate] | ≥ 80% | ≥ 80% | ≥ 80% | ≥ 80%
7 | 156 to 161 °C | CNC(=O)c1cnn(Cc2ccc(-c3noc(C(F)(F)F)n3)cc2)c1 [X.06, N-methyl-1-[[4-[5-(trifluoromethyl)-1,2,4-oxadiazol-3-yl]phenyl]methyl]pyrazole-4-carboxamide] | ≥ 80% | ≥ 80% | ≥ 80% | ≥ 80%
8 | 102 to 112 °C | CON(C)C(=O)c1cnn(Cc2ccc(-c3noc(C(F)(F)F)n3)cc2)c1 [X.15, N-methoxy-N-methyl-1-[[4-[5-(trifluoromethyl)-1,2,4-oxadiazol-3-yl]phenyl]methyl]pyrazole-4-carboxamide] | ≥ 80% | ≥ 80% | ≥ 80% | ≥ 80%
9 |  | NC(=O)c1cnn(Cc2ccc(-c3noc(C(F)(F)F)n3)cc2)c1 [X.19, 1-[[4-[5-(trifluoromethyl)-1,2,4-oxadiazol-3-yl]phenyl]methyl]pyrazole-4-carboxamide] | ≥ 80% | ≥ 80% | ≥ 80% | ≥ 80%
10 | 86 to 96 °C | CCN(CC)C(=O)c1cnn(Cc2ccc(-c3noc(C(F)(F)F)n3)cc2)c1 [X.14, N,N-diethyl-1-[[4-[5-(trifluoromethyl)-1,2,4-oxadiazol-3-yl]phenyl]methyl]pyrazole-4-carboxamide] | ≥ 80% | ≥ 80% | ≥ 80% | ≥ 80%
11 | 68.2 to 70.1 °C | FC(F)(F)c1ncn(Cc2ccc(-c3noc(C(F)(F)F)n3)cc2)n1 [X.01, 5-(trifluoromethyl)-3-[4-[[3-(trifluoromethyl)-1,2,4-triazol-1-yl]methyl]phenyl]-1,2,4-oxadiazole] | ≥ 80% | ≥ 80% | ≥ 80% | ≥ 80%
12 |  | CCSc1ncnn1Cc1ccc(-c2noc(C(F)(F)F)n2)cc1 [X.08, 3-[4-[(5-ethylsulfanyl-1,2,4-triazol-1-yl)methyl]phenyl]-5-(trifluoromethyl)-1,2,4-oxadiazole] | ≥ 80% | ≥ 80% | ≥ 80% | ≥ 80%
13 |  | CCOC(=O)c1cnn(C(C)c2ccc(-c3noc(C(F)(F)F)n3)cc2)c1 (centres unmarked) [X.21, ethyl 1-[1-[4-[5-(trifluoromethyl)-1,2,4-oxadiazol-3-yl]phenyl]ethyl]pyrazole-4-carboxylate] | ≥ 80% | ≥ 80% | ≥ 80% | ≥ 80%
14 |  | CON=Cc1cnn(Cc2ccc(-c3noc(C(F)(F)F)n3)cc2)c1 [X.20, N-methoxy-1-[1-[[4-[5-(trifluoromethyl)-1,2,4-oxadiazol-3-yl]phenyl]methyl]pyrazol-4-yl]methanimine] | ≥ 80% | ≥ 80% | ≥ 80% | ≥ 80%
15 | 124 to 129 °C | CN(C)C(=O)c1cnn(Cc2ccc(-c3noc(C(F)(F)F)n3)cc2)c1 [X.05, N,N-dimethyl-1-[[4-[5-(trifluoromethyl)-1,2,4-oxadiazol-3-yl]phenyl]methyl]pyrazole-4-carboxamide] | ≥ 80% | ≥ 80% | ≥ 80% | ≥ 80%
16 |  | CN(C)c1ncn(Cc2ccc(-c3noc(C(F)(F)F)n3)cc2)n1 [X.07, N,N-dimethyl-1-[[4-[5-(trifluoromethyl)-1,2,4-oxadiazol-3-yl]phenyl]methyl]-1,2,4-triazol-3-amine] | ≥ 80% | ≥ 80% | ≥ 80% | ≥ 80%
17 |  | CCOC(=O)c1cnn(Cc2ccc(-c3noc(C(F)(F)F)n3)cc2)c1 [X.03, ethyl 1-[[4-[5-(trifluoromethyl)-1,2,4-oxadiazol-3-yl]phenyl]methyl]pyrazole-4-carboxylate] | ≥ 80% | ≥ 80% | ≥ 80% | ≥ 80%
18 | 131 to 135 °C | CCOC(=O)c1cnn(Cc2ccc(-c3noc(C(F)(F)F)n3)c(F)c2)c1 [X.13, ethyl 1-[[3-fluoro-4-[5-(trifluoromethyl)-1,2,4-oxadiazol-3-yl]phenyl]methyl]pyrazole-4-carboxylate] | ≥ 80% | ≥ 80% | ≥ 80% | 
19 |  | FC(F)(F)c1nc(-c2ccc(Cn3nnc4ncccc43)cc2)no1 [X.09, 3-[4-(triazolo[4,5-b]pyridin-1-ylmethyl)phenyl]-5-(trifluoromethyl)-1,2,4-oxadiazole] | ≥ 80% | ≥ 80% | ≥ 80% | ≥ 80%
